Measured values taken from patent US20260297060A1, “COMPOUNDS FOR THE DEGRADATION OF MUTANT BRAF” (C4 THERAPEUTICS, INC., priority 2023, published 2026).
Like-named read-outs stand apart in the source and are kept apart here.

Assay: Example 9 pharmacokinetics assay for the PK and PD study Part I, II and III (plasma, tumor, liver)
Assay type: in vivo, BALB/c nude mice
Settings: mouse, po, 10 mg/kg, p.o., single dose, ± SEM
Description: For the PK and PD study Part I, agents were administered to BALB/c nude mice bearing A375 human melanoma xenografts tumors. Dabrafenib, Compound 218 and Compound 157 were dosed via p.o. once on day 1. Dabrafenib was dosed at 100 mg/kg. Compound 218 and Compound 157 were dosed at 10 mg/kg.
For the PK and PD study Part II, agents were administered to BALB/c nude mice bearing A375 human melanoma xenografts tumors. Compound 133, Compound 144 and Compound 198 were dosed at 10 mg/kg via p.o. once on day 1.
For the PK and PD study Part III, agent was administered to BALB/c nude mice bearing A375 human melanoma xenografts tumors. Compound 204 were dosed at 10 mg/kg via p.o. once on day 1.
The plasma samples were collected at predetermined time points for PK analysis. The mice were euthanized at predetermined time points post the treatment. The blood samples were collected into the 1.5 mL Eppendorf tubes containing 15 μL of 0.5 M EDTA-K2. And then the anticoagulant blood samples were centrifuged at 2,500 g at 4° C. for 15 minutes. The plasma samples were separated into 2 aliquots. The 1st was used for PK analysis, and the 2nd served as backup. The samples were stored at −80° C. before bioanalysis.
The tumor samples were collected at predetermined time points for PK and WB analysis. The tumor was dissected out and split into 3 parts. The 1st part was used for PK analysis, the 2nd part was used for WB analysis and the last one served as backup for study. The samples were transferred into pre-labeled tubes and quickly froze in liquid nitrogen within 2 minutes after dissection. The samples were stored at −80° C. before bioanalysis.
Liver samples were collected at predetermined time points for PK analysis. The left lobe of the liver was dissected out and split into 2 parts. The 1st part was used for PK analysis and the 2nd part served as the backup for the study. The samples were transferred into pre-labeled tubes and quickly froze in liquid nitrogen within 2 minutes after dissection. The samples were stored at −80° C. before bioanalysis.
The harvested plasma, tumor and liver samples were processed for pharmacokinetics analysis by LC-MS/MS with a concentration range of 5.00-10,000 ng/mL for Compound 218, Compound 157 and Compound 133 in plasma, 0.500-1,000 ng/ml for Compound 218 in liver and tumor homogenate, 0.200-400 ng/mL for Compound 157, Dabrafenib and Compound 133 in liver and tumor homogenate, 0.500-1000 ng/mL for Dabrafenib and Compound 204 in plasma, 0.200-200 ng/mL for Compound 204 in liver and tumor homogenate, 20.0-20,000 ng/mL for Compound 144 and Compound 198 in plasma, 1.00-1,000 ng/mL for Compound 144 and Compound 198 in liver and tumor homogenate.

[1] = liver, read-out: Mean Concentration in Liver
[2] = plasma, read-out: Mean Concentration in Plasma
[3] = tumor, read-out: Mean Concentration in Tumor

Row | Compound | concentration at 6 h [1] [ng/g] | concentration at 12 h [1] [ng/g] | concentration at 1 h [2] [ng/mL] | concentration at 6 h [2] [ng/mL] | concentration at 12 h [2] [ng/mL] | concentration at 24 h [2] [ng/mL] | concentration at 1 h [3] [ng/g] | concentration at 6 h [3] [ng/g] | concentration at 12 h [3] [ng/g] | concentration at 24 h [3] [ng/g]
1 | CCN(C)S(=O)(=O)Nc1ccc(F)c(Oc2ccc3ncn(C4CC5(CCN(C6CC7(CCN(c8cc9c(cc8F)c(N8CCC(=O)NC8=O)nn9C)CC7)C6)CC5)C4)c(=O)c3c2)c1C#N (stereo not shown) [Compound 198, 6-[2-cyano-3-[[ethyl(methyl)sulfamoyl]amino]-6-fluoro-phenoxy]-3-[7-[7-[3-(2,4-dioxohexahydropyrimidin-1-yl)-5-fluoro-1-methyl-indazol-6-yl]-7-azaspiro[3.5]nonan-2-yl]-7-azaspiro[3.5]nonan-2-yl]-4-oxo-quinazoline] | 2240 ± 416 | 1020 ± 177 | 2430 ± 91.7 | 2670 ± 117 | 1700 ± 172 | 573 ± 94.2 | 441 ± 38.8 | 1120 ± 28.5 | 776 ± 107 | 383 ± 128
2 | CO[C@@H]1CCN(S(=O)(=O)Nc2ccc(F)c(Oc3ccc4ncn([C@H]5COC6(CCN(C7CC8(C7)CN(c7cc9c(cc7F)c(N7CCC(=O)NC7=O)nn9C)C8)CC6)C5)c(=O)c4c3)c2C#N)C1 [Compound 144, (3R)-N-[2-cyano-3-[3-[(3R)-8-[2-[3-(2,4-dioxohexahydropyrimidin-1-yl)-5-fluoro-1-methyl-indazol-6-yl]-2-azaspiro[3.3]heptan-6-yl]-1-oxa-8-azaspiro[4.5]decan-3-yl]-4-oxo-quinazolin-6-yl]oxy-4-fluoro-phenyl]-3-methoxy-pyrrolidine-1-sulfonamide] | 1890 ± 584 | 873 ± 234 | 11600 ± 2260 | 6220 ± 1880 | 1240 ± 395 | 143 ± 15.4 | 946 ± 172 | 1180 ± 406 | 616 ± 127 | 183 ± 45.4
3 | CCN(C)S(=O)(=O)Nc1ccc(F)c(Oc2ccc3ncc(OC4CC5(CCN(C6CCC(c7cc8c(cc7F)c(N7CCC(=O)NC7=O)nn8C)CC6)CC5)C4)nc3c2)c1C#N (single isomer, unassigned) [Compound 218, 7-[2-cyano-3-[[ethyl(methyl)sulfamoyl]amino]-6-fluoro-phenoxy]-2-[[7-[4-[3-(2,4-dioxohexahydropyrimidin-1-yl)-5-fluoro-1-methyl-indazol-6-yl]cyclohexyl]-7-azaspiro[3.5]nonan-2-yl]oxy]quinoxaline] | 5710 ± 300 | 972 ± 40.9 | 6310 ± 978 | 1750 ± 96.1 | 206 ± 11.5 | 6.2 ± 3.47 | 1850 ± 164 | 1360 ± 21.9 | 268 ± 26.7 | 13.4 ± 4.31
4 | Cn1nc(N2CCC(=O)NC2=O)c2cc(F)c(N3CC4(CC(N5CCC6(CC5)C[C@@H](n5cnc7ccc(Oc8c(F)ccc(NS(=O)(=O)N9CC[C@@H](F)C9)c8C#N)cc7c5=O)CO6)C4)C3)cc21 [Compound 133, (3R)-N-[2-cyano-3-[3-[(3R)-8-[2-[3-(2,4-dioxohexahydropyrimidin-1-yl)-5-fluoro-1-methyl-indazol-6-yl]-2-azaspiro[3.3]heptan-6-yl]-1-oxa-8-azaspiro[4.5]decan-3-yl]-4-oxo-quinazolin-6-yl]oxy-4-fluoro-phenyl]-3-fluoro-pyrrolidine-1-sulfonamide] | 2030 ± 179 | 503 ± 207 | 8880 ± 604 | 3460 ± 69.8 | 733 ± 348 | 23.4 ± 5.56 | 764 ± 122 | 686 ± 6.23 | 316 ± 172 | 41.7 ± 26.4
5 | CCN(C)S(=O)(=O)Nc1ccc(F)c(Oc2ccc3ncn(C4CC5(C4)CN(C4CCC(c6cc7c(cc6F)c(N6CCC(=O)NC6=O)nn7C)CC4)C5)c(=O)c3c2)c1C#N (single isomer, unassigned) [Compound 204, 6-[2-cyano-3-[[ethyl(methyl)sulfamoyl]amino]-6-fluoro-phenoxy]-3-[2-[4-[3-(2,4-dioxohexahydropyrimidin-1-yl)-5-fluoro-1-methyl-indazol-6-yl]cyclohexyl]-2-azaspiro[3.3]heptan-6-yl]-4-oxo-quinazoline] | 606 ± 73.4 | 291 ± 103 | 2070 ± 407 | 104 ± 6.18 | 32.9 ± 12.1 |  | 74.7 ± 16.5 | 112 ± 11 | 45 ± 9.93 | 
6 | CO[C@H]1CCN(S(=O)(=O)Nc2ccc(F)c(Oc3ccc4ncn([C@H]5COC6(CCN(C7CC8(C7)CN(c7cc9c(cc7F)c(N7CCC(=O)NC7=O)nn9C)C8)CC6)C5)c(=O)c4c3)c2C#N)C1 [Compound 157, (3S)-N-[2-cyano-3-[3-[(3R)-8-[2-[3-(2,4-dioxohexahydropyrimidin-1-yl)-5-fluoro-1-methyl-indazol-6-yl]-2-azaspiro[3.3]heptan-6-yl]-1-oxa-8-azaspiro[4.5]decan-3-yl]-4-oxo-quinazolin-6-yl]oxy-4-fluoro-phenyl]-3-methoxy-pyrrolidine-1-sulfonamide] | 2000 ± 132 | 1320 ± 233 | 14700 ± 2000 | 14700 ± 1560 | 5420 ± 1400 | 161 ± 40.1 | 1460 ± 376 | 1990 ± 120 | 1470 ± 329 | 183 ± 137
